Values of other authors in paper PMC3065533 (Journal of nuclear medicine : official publication, Society …, 2011).

Biological target: melanocortin-1 (MC1) receptor (Mus musculus, UniProt Q01727)
Conditions: stated in methods without reference

Chain of melanocortin-1 (MC1) receptor (Q01727 whole entry): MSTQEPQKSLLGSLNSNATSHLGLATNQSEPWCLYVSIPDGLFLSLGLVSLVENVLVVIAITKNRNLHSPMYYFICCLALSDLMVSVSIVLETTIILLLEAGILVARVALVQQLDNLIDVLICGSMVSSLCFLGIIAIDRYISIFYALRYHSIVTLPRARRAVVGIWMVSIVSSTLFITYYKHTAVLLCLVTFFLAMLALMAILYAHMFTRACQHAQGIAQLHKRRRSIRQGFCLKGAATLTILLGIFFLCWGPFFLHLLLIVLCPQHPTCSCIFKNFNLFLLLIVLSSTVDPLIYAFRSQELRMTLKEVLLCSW

**Q.** Which “MC1 receptor binding affinity (in words)” value does the source give for NDP-MSH here?
**A.** picomolar
